According to the NIST ThermoML archive (doi:10.1021/acs.jced.7b00107):

What was measured:
[1] = Molar enthalpy of transition or fusion; conditions: Adiabatic calorimetry
[2] = for molar entropy: 101.33 kPa; for Triple point temperature: Adiabatic calorimetry

Cl.NC12CC3CC(CC(C3)C1)C2 [1-aminoadamantane hydrochloride]
Conditions	Molar enthalpy of transition or fusion, [1] [kcal/mol]	Triple point temperature, [2] [K]
Crystal 2	0.0366	123.1
Crystal 3	0.0108	120

[2]
Conditions	molar entropy [J/K/mol]
5 K, Crystal 3, Small (less than 1 g) adiabatic calorimetry	0.1924
10 K, Crystal 3, Small (less than 1 g) adiabatic calorimetry	1.564
15 K, Crystal 3, Small (less than 1 g) adiabatic calorimetry	4.477
20 K, Crystal 3, Small (less than 1 g) adiabatic calorimetry	8.48
25 K, Crystal 3, Small (less than 1 g) adiabatic calorimetry	13.09
30 K, Crystal 3, Small (less than 1 g) adiabatic calorimetry	17.99
35 K, Crystal 3, Small (less than 1 g) adiabatic calorimetry	22.99
40 K, Crystal 3, Small (less than 1 g) adiabatic calorimetry	27.96
45 K, Crystal 3, Small (less than 1 g) adiabatic calorimetry	32.87
50 K, Crystal 3, Small (less than 1 g) adiabatic calorimetry	37.68
60 K, Crystal 3, Small (less than 1 g) adiabatic calorimetry	46.99
70 K, Crystal 3, Small (less than 1 g) adiabatic calorimetry	55.88
80 K, Crystal 3, Small (less than 1 g) adiabatic calorimetry	64.42
90 K, Crystal 3, Small (less than 1 g) adiabatic calorimetry	72.68
100 K, Crystal 3, Small (less than 1 g) adiabatic calorimetry	80.74
110 K, Crystal 3, Small (less than 1 g) adiabatic calorimetry	88.67
120 K, Crystal 2, Small (less than 1 g) adiabatic calorimetry	96.9
120 K, Crystal 3, Small (less than 1 g) adiabatic calorimetry	96.53
123.1 K, Crystal 1, Small (less than 1 g) adiabatic calorimetry	100.6
123.1 K, Crystal 2, Small (less than 1 g) adiabatic calorimetry	99.33
130 K, Crystal 1, Small (less than 1 g) adiabatic calorimetry	106
140 K, Crystal 1, Small (less than 1 g) adiabatic calorimetry	113.7
150 K, Crystal 1, Small (less than 1 g) adiabatic calorimetry	121.3
160 K, Crystal 1, Small (less than 1 g) adiabatic calorimetry	128.7
170 K, Crystal 1, Small (less than 1 g) adiabatic calorimetry	136
180 K, Crystal 1, Small (less than 1 g) adiabatic calorimetry	143.3
190 K, Crystal 1, Small (less than 1 g) adiabatic calorimetry	150.5
200 K, Crystal 1, Small (less than 1 g) adiabatic calorimetry	157.7
210 K, Crystal 1, Small (less than 1 g) adiabatic calorimetry	164.8
220 K, Crystal 1, Small (less than 1 g) adiabatic calorimetry	172
230 K, Crystal 1, Small (less than 1 g) adiabatic calorimetry	179.1
240 K, Crystal 1, Small (less than 1 g) adiabatic calorimetry	186.3
250 K, Crystal 1, Small (less than 1 g) adiabatic calorimetry	193.4
260 K, Crystal 1, Small (less than 1 g) adiabatic calorimetry	200.6
270 K, Crystal 1, Small (less than 1 g) adiabatic calorimetry	207.8
280 K, Crystal 1, Small (less than 1 g) adiabatic calorimetry	215
290 K, Crystal 1, Small (less than 1 g) adiabatic calorimetry	222.2
298.15 K, Crystal 1, Small (less than 1 g) adiabatic calorimetry	228.1
300 K, Crystal 1, Small (less than 1 g) adiabatic calorimetry	229.5
310 K, Crystal 1, Small (less than 1 g) adiabatic calorimetry	236.7
320 K, Crystal 1, Small (less than 1 g) adiabatic calorimetry	244
330 K, Crystal 1, Small (less than 1 g) adiabatic calorimetry	251.3
340 K, Crystal 1, Small (less than 1 g) adiabatic calorimetry	258.6
350 K, Crystal 1, Small (less than 1 g) adiabatic calorimetry	265.9
360 K, Crystal 1, Small (less than 1 g) adiabatic calorimetry	273.3
370 K, Crystal 1, Small (less than 1 g) adiabatic calorimetry	280.6
380 K, Crystal 1, Small sample (50 mg) DSC	288
390 K, Crystal 1, Small sample (50 mg) DSC	295.4
400 K, Crystal 1, Small sample (50 mg) DSC	302.8
410 K, Crystal 1, Small sample (50 mg) DSC	310.2
420 K, Crystal 1, Small sample (50 mg) DSC	317.6
430 K, Crystal 1, Small sample (50 mg) DSC	325
440 K, Crystal 1, Small sample (50 mg) DSC	332.5
450 K, Crystal 1, Small sample (50 mg) DSC	339.9
460 K, Crystal 1, Small sample (50 mg) DSC	347.3
470 K, Crystal 1, Small sample (50 mg) DSC	354.8
